Experimental findings from paper PMC10648927, “Examining the activity of cefepime-taniborbactam against Burkholderia cepacia complex and Burkholderia gladioli isolated from cystic fibrosis patients in the United States” (Antimicrobial Agents and Chemotherapy, 2023) are described below.

Converted amounts (≈) assume the structure as drawn. A value given as a limit tells only on which side of the number the result lay.

Holding throughout (set-up): agar dilution MIC, growth inhibition of clinical Burkholderia isolates
(In general: In agar dilution the substance is mixed into plates at graded concentrations.)

One experiment concerns T1, B. gladioli AU29223.
T1 construct: AU29223
The experiment in a line: organism not typed. An outline of the steps:
(§1)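 MICs by agar dilution against Bcc and B. gladioli clinical isolates, interpreted with CLSI breakpoints where available; K. pneumoniae ATCC 700603 (SHV-18) and ATCC BAA-1705 (KPC) served as quality controls.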

The next experiment relates to T2, B. gladioli AU30473.
T2 construct: AU30473
The experiment in a line: organism not typed. An outline of the steps:
as §1

Another experiment has as its system T3, B. multivorans AU28442.
T3 construct: AU28442
The experiment in a line: microbe, parasite or virus in culture. The conditions noted are these: Burkholderia multivorans, AU28442. An outline of the steps: as §1

In a further experiment the test system is T4, B. multivorans AU19518.
T4 construct: AU19518
The experiment in a line: microbe, parasite or virus in culture. The conditions noted are these: Burkholderia multivorans, AU19518. An outline of the steps: as §1

The subject of another experiment is T5, B. cepacia AU0329.
T5 construct: AU0329
The experiment in a line: microbe, parasite or virus in culture. The conditions noted are these: Burkholderia cepacia, AU0329. In outline: as §1

The next experiment concerns T6, B. multivorans AU17534.
T6 construct: AU17534
The experiment in a line: microbe, parasite or virus in culture. The note with it: Burkholderia multivorans, AU17534. An outline of the steps: as §1

In a further experiment the test system is T7, B. arboris AU24192.
T7 construct: AU24192
The experiment in a line: organism not typed. An outline of the steps: as §1

Another experiment deals with T8, B. multivorans AU24277.
T8 construct: AU24277
The experiment in a line: microbe, parasite or virus in culture. The note with it: Burkholderia multivorans, AU24277. An outline of the steps:
as §1

In the next experiment the test system is T9, B. multivorans AU11204.
T9 construct: AU11204
The experiment in a line: microbe, parasite or virus in culture. The conditions noted are these: Burkholderia multivorans, AU11204. In outline:
as §1

The test system of a further experiment is T10, B. gladioli AU1009.
T10 construct: AU1009
The experiment in a line: organism not typed. In outline: as §1

For another experiment, the system named is T11, B. pyrrocinia AU1114.
T11 construct: AU1114
The experiment in a line: microbe, parasite or virus in culture. The conditions noted are these: Burkholderia pyrrocinia, AU1114. In outline:
as §1

The subject of a further experiment is T12, B. vietnamiensis AU26096.
T12 construct: AU26096
The experiment in a line: microbe, parasite or virus in culture. The conditions noted are these: Burkholderia vietnamiensis, AU26096. An outline of the steps:
as §1

Another experiment relates to T13, B. cenocepacia AU17796.
T13 construct: AU17796
The experiment in a line: microbe, parasite or virus in culture. The note with it: Burkholderia cenocepacia, AU17796. An outline of the steps: as §1

The next experiment has as its system T14, B. multivorans AU30760.
T14 construct: AU30760
The experiment in a line: microbe, parasite or virus in culture. The conditions noted are these: Burkholderia multivorans, AU30760. In outline:
as §1

The subject of a further experiment is T15, B. multivorans AU10047.
T15 construct: AU10047
The experiment in a line: microbe, parasite or virus in culture. The note with it: Burkholderia multivorans, AU10047. In outline: as §1

The next experiment relates to T16, B. multivorans AU16734.
T16 construct: AU16734
The experiment in a line: microbe, parasite or virus in culture. The note with it: Burkholderia multivorans, AU16734. In outline: as §1

As to `CO/N=C(\C(=O)N[C@@H]1C(=O)N2C(C(=O)[O-])=C(C[N+]3(C)CCCC3)CS[C@H]12)c1csc(N)n1` [cefepime], the MIC in the experiment with B. gladioli AU29223 is 16 µg/mL (≈ 33.3 µM); in the experiment with B. gladioli AU30473, 32 µg/mL (≈ 66.6 µM); in the experiment on B. multivorans AU28442 it was greater than 32 µg/mL; with B. multivorans AU19518 it was 32 µg/mL (≈ 66.6 µM); in the experiment on B. cepacia AU0329, greater than 32 µg/mL; in the experiment with B. multivorans AU17534, greater than 32 µg/mL. Moreover, the MIC against B. arboris AU24192 was 32 µg/mL (≈ 66.6 µM); with B. multivorans AU24277 it was greater than 32 µg/mL; in the experiment on B. multivorans AU11204, 4 µg/mL (≈ 8.32 µM); against B. gladioli AU1009, 16 µg/mL (≈ 33.3 µM); with B. pyrrocinia AU1114, 8 µg/mL (≈ 16.6 µM); in the experiment on B. vietnamiensis AU26096, 32 µg/mL (≈ 66.6 µM). Besides, the MIC was 16 µg/mL (≈ 33.3 µM) in the experiment with B. cenocepacia AU17796, 8 µg/mL (≈ 16.6 µM) against B. multivorans AU30760, 32 µg/mL (≈ 66.6 µM) in the experiment with B. multivorans AU10047 and 16 µg/mL (≈ 33.3 µM) in the experiment with B. multivorans AU16734.
On to `C[C@H]1COc2c(N3CCN(C)CC3)c(F)cc3c(=O)c(C(=O)O)cn1c23` [levofloxacin], for which the MIC in the experiment on B. gladioli AU29223 was 0.5 µg/mL (≈ 1.38 µM); against B. gladioli AU30473, 2 µg/mL (≈ 5.53 µM); in the experiment with B. multivorans AU28442 it was 16 µg/mL (≈ 44.3 µM); in the experiment on B. multivorans AU19518, 32 µg/mL (≈ 88.6 µM); with B. cepacia AU0329 it was greater than 32 µg/mL; against B. arboris AU24192, 4 µg/mL (≈ 11.1 µM). The MIC is 32 µg/mL (≈ 88.6 µM) against B. multivorans AU24277; 2 µg/mL (≈ 5.53 µM) with B. multivorans AU11204; 0.5 µg/mL (≈ 1.38 µM) in the experiment with B. gladioli AU1009; greater than 32 µg/mL in the experiment on B. pyrrocinia AU1114; greater than 32 µg/mL in the experiment with B. vietnamiensis AU26096; 8 µg/mL (≈ 22.1 µM) against B. cenocepacia AU17796. For the same molecule, the MIC is 2 µg/mL (≈ 5.53 µM) in the experiment on B. multivorans AU30760, 8 µg/mL (≈ 22.1 µM) in the experiment with B. multivorans AU10047 and 8 µg/mL (≈ 22.1 µM) in the experiment with B. multivorans AU16734.
On to `C[C@@H](O)[C@H]1C(=O)N2C(C(=O)O)=C(S[C@@H]3CN[C@H](C(=O)N(C)C)C3)[C@H](C)[C@H]12` [meropenem], for which the MIC in the experiment on B. gladioli AU29223 is 1 µg/mL (≈ 2.61 µM); against B. gladioli AU30473, 4 µg/mL (≈ 10.4 µM); with B. multivorans AU28442, greater than 32 µg/mL; against B. multivorans AU19518, 16 µg/mL (≈ 41.7 µM); in the experiment with B. cepacia AU0329, 2 µg/mL (≈ 5.22 µM); against B. multivorans AU17534, 16 µg/mL (≈ 41.7 µM). Also, the MIC with B. arboris AU24192 is 8 µg/mL (≈ 20.9 µM); in the experiment on B. multivorans AU24277, 16 µg/mL (≈ 41.7 µM); in the experiment on B. multivorans AU11204, 2 µg/mL (≈ 5.22 µM); in the experiment with B. gladioli AU1009, 1 µg/mL (≈ 2.61 µM); with B. pyrrocinia AU1114, 4 µg/mL (≈ 10.4 µM); against B. vietnamiensis AU26096, 8 µg/mL (≈ 20.9 µM). Also, the MIC against B. cenocepacia AU17796 turned out to be 4 µg/mL (≈ 10.4 µM); in the experiment with B. multivorans AU30760 it was 2 µg/mL (≈ 5.22 µM); against B. multivorans AU10047 it was 16 µg/mL (≈ 41.7 µM); in the experiment on B. multivorans AU16734 it was 16 µg/mL (≈ 41.7 µM).
